Experimental findings from patent US20240315993A1, “ANTIPARASITIC COMPOUNDS” (Intervet Inc., priority 2021, published 2024) are described below.

Assay [1] relates to juvenile soft ticks (Ornithodoros moubata). In words: Guinea pig - efficacy against argaside tick. The assay is classed as in vivo. Particulars: for effective to control ticks: 5 mg/kg. As for the experimental part: (§1) Guinea pigs were locally co-infested (using an infestation device on a shaved skin area) with juvenile soft ticks (Ornithodoros moubata) and bed bugs (Cimex lectularius) before the treatment day (Day 0) to provide a baseline-negative control value. Guinea pigs were treated orally (by gavage) or subcutaneously at a dose of 5 mg/kg bodyweight of a test compound in a formulation of 10% DMF/Emulsifier+90% Aqua ad injectabilia.
(§2) Repeated local infestations with both parasites were performed at different time points after treatment. Within approximately 45 min after each infestation ten engorged ticks and ten engorged bed bugs were • collected and the percentage of dead and damaged parasites per species were • assessed approximately 24 hours following collection. The efficacy was • calculated as % of inhibition ‘killed+damaged’ parasites in a treated group in comparison to the baseline-negative control (using a modified Schneider Orelli's formula).
(§3) Results: Activity of the test compounds at different evaluation time-points (≥80% inhibition were found active): […]

Assay [2] relates to bed bugs (Cimex lectularius). Description: Guinea pig - efficacy against bed bug. The assay is classed as in vivo. Particulars: for effective to control bed bugs: 5 mg/kg. As for the experimental part: as §1, §2, §3
[3] abbreviates: 5 mg/kg subcutaneous, after 7 days.
Setting [4] is: 5 mg/kg subcutaneous, after 10 days.
[5] abbreviates: 5 mg/kg subcutaneous, after 14 days.
Where [6] appears, read: 5 mg/kg subcutaneous, after 17 days.
The mark [7] stands for this setting: 5 mg/kg subcutaneous, after 21 days.
Setting [8] is: 5 mg/kg subcutaneous, after 24 days.
The mark [9] stands for this setting: 5 mg/kg subcutaneous, after 28 days.
Where [10] appears, read: 5 mg/kg subcutaneous, after 31 days.
Where [11] appears, read: 5 mg/kg subcutaneous, after 35 days.
[12] abbreviates: for at least one week, both administration routes.
The mark [13] stands for this setting: at least until Day 10, both administration routes (oral, subcutaneous).

`O=C(Nc1ccc(F)cc1F)c1cc(NC(=O)C2C(c3cc(C(F)(F)F)cc(C(F)(F)F)c3)C2(Cl)Cl)ccc1Cl` (stereo not shown) [Compound 472]: the “activity against tick nymphs (≥80% inhibition, killed+damaged)” value is “immediate activity” in assay [1] (5 mg/kg oral, Day 0) and “immediate activity” in assay [1] (5 mg/kg subcutaneous, Day 0). In addition, the “activity against bed bugs (≥80% inhibition, killed+damaged)” value is “immediate activity” in assay [2] (5 mg/kg oral, Day 0) and “immediate activity” in assay [2] (5 mg/kg subcutaneous, Day 0).
Consider `O=C(Nc1ncc(F)cc1F)c1cc(NC(=O)C2C(c3cc(Cl)cc(C(F)(F)F)c3)C2(Cl)Cl)ccc1Cl` (stereo not shown) [Compound 475], for which the “activity against tick nymphs (≥80% inhibition, killed+damaged)” value in assay [1] (5 mg/kg oral, Day 0) was “immediate activity”; in assay [1] (5 mg/kg oral, after 7 days), “activity”; in assay [1] (5 mg/kg oral, after 10 days) it was “activity”; in assay [1] (5 mg/kg oral, after 14 days), “activity”; in assay [1] (5 mg/kg oral, after 17 days) it was “activity”; in assay [1] (5 mg/kg subcutaneous, Day 0) it was “immediate activity”. The “activity against tick nymphs (≥80% inhibition, killed+damaged)” value in assay [1] (setting [3]), in assay [1] (setting [4]), in assay [1] (setting [5]), in assay [1] (setting [6]), in assay [1] (setting [7]) and in assay [1] (setting [8]) was “activity” in each case. Moreover, the “activity against tick nymphs (≥80% inhibition, killed+damaged)” value in assay [1] (setting [9]), in assay [1] (setting [10]) and in assay [1] (setting [11]) was “activity” in each case. The “effective to control ticks” value in assay [1] (setting [12]) was 100%. Moreover, the “activity against bed bugs (≥80% inhibition, killed+damaged)” value in assay [2] (5 mg/kg oral, Day 0) is “immediate activity”; in assay [2] (5 mg/kg oral, after 7 days) it was “activity”; in assay [2] (5 mg/kg oral, after 10 days) it was “activity”; in assay [2] (5 mg/kg oral, after 14 days), “activity”; in assay [2] (5 mg/kg oral, after 17 days), “activity”; in assay [2] (5 mg/kg oral, after 21 days), “activity”. For the same molecule, the “activity against bed bugs (≥80% inhibition, killed+damaged)” value is reported as “activity” in assay [2] (5 mg/kg oral, after 24 days); “activity” in assay [2] (5 mg/kg oral, after 28 days); “immediate activity” in assay [2] (5 mg/kg subcutaneous, Day 0); “activity” in assay [2] (setting [3]); “activity” in assay [2] (setting [4]); “activity” in assay [2] (setting [5]). Moreover, the “activity against bed bugs (≥80% inhibition, killed+damaged)” value in assay [2] (setting [6]), in assay [2] (setting [7]), in assay [2] (setting [8]), in assay [2] (setting [9]) and in assay [2] (setting [10]) was “activity” in each case. Moreover, the “effective to control bed bugs” value in assay [2] (setting [12]) is 100%.
Consider `O=C(Nc1ncc(F)cc1F)c1cc(NC(=O)C2C(c3cc(Cl)c(F)c(Cl)c3)C2(Cl)Cl)ccc1Cl` (stereo not shown) [Compound 469], for which the “activity against tick nymphs (≥80% inhibition, killed+damaged)” value is given as “immediate activity” in assay [1] (5 mg/kg oral, Day 0); “activity” in assay [1] (5 mg/kg oral, after 7 days); “activity” in assay [1] (5 mg/kg oral, after 10 days); “immediate activity” in assay [1] (5 mg/kg subcutaneous, Day 0); “activity” in assay [1] (setting [3]); “activity” in assay [1] (setting [4]). In addition, the “activity against tick nymphs (≥80% inhibition, killed+damaged)” value in assay [1] (setting [5]) and in assay [1] (setting [6]) was “activity” each time. Moreover, the “effective to control ticks” value in assay [1] (setting [13]) came out at 100%. The “activity against bed bugs (≥80% inhibition, killed+damaged)” value in assay [2] (5 mg/kg oral, Day 0) is “immediate activity”; in assay [2] (5 mg/kg oral, after 7 days) it was “activity”; in assay [2] (5 mg/kg oral, after 10 days), “activity”; in assay [2] (5 mg/kg subcutaneous, Day 0), “immediate activity”; in assay [2] (setting [3]) it was “activity”; in assay [2] (setting [4]), “activity”. In addition, the “activity against bed bugs (≥80% inhibition, killed+damaged)” value in assay [2] (setting [5]), in assay [2] (setting [6]) and in assay [2] (setting [7]) was “activity” in each case. For the same molecule, the “effective to control bed bugs” value in assay [2] (setting [13]) was 100%.
As for `O=C(Nc1ncc(F)cc1F)c1cc(NC(=O)C2C(c3cc(Cl)c(Cl)c(Cl)c3)C2(Cl)Cl)ccc1Cl` (stereo not shown) [Compound 470], the “activity against tick nymphs (≥80% inhibition, killed+damaged)” value in assay [1] (5 mg/kg oral, Day 0) is “immediate activity”; in assay [1] (5 mg/kg oral, after 7 days) it was “activity”; in assay [1] (5 mg/kg oral, after 10 days), “activity”; in assay [1] (5 mg/kg oral, after 14 days) it was “activity”; in assay [1] (5 mg/kg oral, after 17 days), “activity”; in assay [1] (5 mg/kg subcutaneous, Day 0), “immediate activity”. Besides, the “activity against tick nymphs (≥80% inhibition, killed+damaged)” value in assay [1] (setting [3]), in assay [1] (setting [4]), in assay [1] (setting [5]), in assay [1] (setting [6]), in assay [1] (setting [7]) and in assay [1] (setting [8]) was “activity” each time. In addition, the “activity against tick nymphs (≥80% inhibition, killed+damaged)” value in assay [1] (setting [9]) and in assay [1] (setting [10]) was “activity” in each case. For the same molecule, the “effective to control ticks” value in assay [1] (setting [12]) worked out at 100%. In addition, the “activity against bed bugs (≥80% inhibition, killed+damaged)” value in assay [2] (5 mg/kg oral, Day 0) is “immediate activity”; in assay [2] (5 mg/kg oral, after 7 days), “activity”; in assay [2] (5 mg/kg oral, after 10 days), “activity”; in assay [2] (5 mg/kg oral, after 14 days), “activity”; in assay [2] (5 mg/kg oral, after 17 days) it was “activity”; in assay [2] (5 mg/kg oral, after 21 days) it was “activity”. The “activity against bed bugs (≥80% inhibition, killed+damaged)” value in assay [2] (5 mg/kg oral, after 24 days) is recorded as “activity”; in assay [2] (5 mg/kg oral, after 28 days), “activity”; in assay [2] (5 mg/kg subcutaneous, Day 0), “immediate activity”; in assay [2] (setting [3]), “activity”; in assay [2] (setting [4]), “activity”; in assay [2] (setting [5]), “activity”. The “activity against bed bugs (≥80% inhibition, killed+damaged)” value in assay [2] (setting [6]), in assay [2] (setting [7]), in assay [2] (setting [8]), in assay [2] (setting [9]), in assay [2] (setting [10]) and in assay [2] (setting [11]) was “activity” each time. Besides, the “effective to control bed bugs” value in assay [2] (setting [12]) was determined as 100%.
